# From patent US5574008A, “Biologically active fragments of glucagon-like insulinotropic peptide” (Eli Lilly and Company, priority 1994, dated 1996)
# Tested on: fasted normal Sprague-Dawley rats
# Experiment: In vivo hyperglycemic clamp assay (glucose up-take assay)
# Set-up: species or system rat
# Conditions: 200 mg/dl plasma glucose clamp, 0.3 nmol/kg iv bolus at 60 min
# Excerpt: In vivo Hyperglycemic Clamp Assay (Glucose Up-take Assay) Male Sprague-Dawley rats (Charles Rivers) weighing about 350 grams were allowed to acclimate to their surroundings for a week after which they were cannulated under isoflurane inhalation anesthetic. Two catheters were implanted into the jugular vein for infusions of glucose and GLP-1 fragment. Another catheter was implanted into the carotid artery for sampling blood. The catheters were exteriorized through the skin at the vertex of the head, filled with a glycerol/heparin solution (30 ml glycerol/10 ml heparin from a 1000 u/ml stock solution), and closed off with a one centimeter stainless steel plug. The rats were housed individually in wire mesh cages and were fed ad libitum on a standard rat chow diet. Each animal was given at least one week to recover from surgery before testing any GLP-1 fragments for biological activity. The rats were fasted overnight; on the morning of the experiment, sampling tubes were connected to the indwelling catheters, and the tubes were enclosed in a light weight stainless steel spring for protection. The rats were acclimated to their cages for 15 minutes. All experiments were carried out in conscious, free moving rats. A basal blood sample was taken for measurement of insulin and glucose levels at time zero on the timer. The rats were then given a bolus of 20% dextrose to raise plasma glucose to either 150 mg/dl (8.3 mM) or 200 mg/dl (11.2 mM). Plasma glucose levels were maintained at the chosen level by measuring plasma glucose levels approximately every 5 minutes and adjusting the calibrated variable infusion pump as needed to maintain the established blood glucose levels. Blood samples were collected at 45 and 60 minutes for the control period measurements. At 60 minutes into the clamp, 0.3 nmol/kg of the experimental GLP-1 fragment was injected via the jugular vein catheter and flushed with saline. […] The blood samples were centrifuged in a micro centrifuge to separate the plasma component. Plasma glucose was measured on a Beckman Glucose analyzer II using the glucose oxidase method. Plasma insulin was determined by standard radio immunoassay as per the manufacturer's directions (Diagnostic Products Corp.). The activity of the GLP-1 fragment was determined by the percentage change in glucose infusion rate and change in insulin secreted. These two parameters were compared to control rats that received only diluent. Note: This assay is based on reports that GLP-1 insulinotropic action is glucose dependent. The assay protocol eliminates variability due to falling glucose levels in other protocols using the "bolus" method. The hyperglycemic clamp involved administration of variable amounts of glucose (20% dextrose) to maintain glucose at a constant level of 8.3 or 11.2 mM in fasted normal Sprague-Dawley rats. The hyperglycemic clamp is maintained for 1 hour after which the GLP-1 fragment is injected as a bolus through the jugular vein. […] The glucose infusion rate (GIR) in the last 15 minutes of the control period and after the injection of the peptide is calculated. The activity of the peptide is determined by the increase in glucose infusion rate and change in insulin secreted after the injection of the peptide.
smiles,measurement,setting,value
CC[C@H](C)[C@H](NC(=O)[C@H](Cc1ccccc1)NC(=O)[C@H](CCC(=O)O)NC(=O)[C@H](CCCCN)NC(=O)[C@H](C)NC(=O)[C@H](C)NC(=O)[C@H](CCC(N)=O)NC(=O)CNC(=O)[C@H](CCC(=O)O)NC(=O)[C@H](CC(C)C)NC(=O)[C@H](Cc1ccc(O)cc1)NC(=O)[C@H](CO)NC(=O)[C@H](CO)NC(=O)[C@@H](NC(=O)[C@H](CC(=O)O)NC(=O)[C@H](CO)NC(=O)[C@@H](NC(=O)[C@H](Cc1ccccc1)NC(=O)[C@@H](NC(=O)CNC(=O)[C@@H](N)CCC(=O)O)[C@@H](C)O)[C@@H](C)O)C(C)C)C(=O)N[C@@H](C)C(=O)N[C@@H](Cc1c[nH]c2ccccc12)C(=O)N[C@@H](CC(C)C)C(=O)N[C@H](C(=O)N[C@@H](CCCCN)C(=O)NCC(=O)N[C@@H](CCCNC(=N)N)C(N)=O)C(C)C [GLP-1(9-36)NH2],% Change in GIR,time 60 min,21.936%
same,Plasma Insulin Change,time 60 min,2.429 ng/mL
same,% Change in GIR,time 62 min,-1.287%
same,Plasma Insulin Change,time 62 min,-0.521 ng/mL
same,% Change in GIR,time 64 min,0.635%
same,Plasma Insulin Change,time 64 min,-0.765 ng/mL
same,% Change in GIR,time 66 min,10.697%
same,Plasma Insulin Change,time 66 min,-0.637 ng/mL
same,% Change in GIR,time 68 min,24.584%
same,Plasma Insulin Change,time 68 min,-0.662 ng/mL
same,% Change in GIR,time 70 min,46.387%
same,Plasma Insulin Change,time 70 min,-0.274 ng/mL
same,% Change in GIR,time 75 min,61.185%
same,Plasma Insulin Change,time 75 min,0.138 ng/mL
same,% Change in GIR,time 80 min,48.254%
same,Plasma Insulin Change,time 80 min,-0.390 ng/mL
same,% Change in GIR,time 85 min,34.689%
same,Plasma Insulin Change,time 85 min,0.064 ng/mL
same,% Change in GIR,time 90 min,17.272%
same,Plasma Insulin Change,time 90 min,-0.361 ng/mL
same,% Change in GIR,time 100 min,7.537%
same,Plasma Insulin Change,time 100 min,-0.743 ng/mL
same,% Change in GIR,time 110 min,-0.920%
same,Plasma Insulin Change,time 110 min,-0.824 ng/mL
same,% Change in GIR,time 120 min,4.716%
same,Plasma Insulin Change,time 120 min,-0.880 ng/mL
same,% Change in GIR,time 130 min,3.818%
same,Plasma Insulin Change,time 130 min,-0.653 ng/mL
same,% Change in GIR,time 140 min,-6.783%
same,Plasma Insulin Change,time 140 min,-0.927 ng/mL
same,% Change in GIR,time 150 min,1.333%
same,Plasma Insulin Change,time 150 min,-0.450 ng/mL
